Assay results taken from US20260102359A1, “COMBINATION TREATMENT OF DERMAL AND TRANSDERMAL FIBROTIC DISEASES, DISORDERS AND ASSOCIATED PAIN AND INFLAMMATION” (ERESINA, LLC, priority 2022, published 2026).
Counter-ions that a name gives are not always drawn.

Tested on: hDMFa myofibroblast cells

SMILES	Compound Myofibroblast Cytotoxicity Activity
CCC(C)(C)c1ccc(CC(C)CN2C[C@@H](C)O[C@@H](C)C2)cc1 (stereo partly drawn) [Cmpd 113, Amorolfine HCl]	+++
COc1cc(NS(C)(=O)=O)ccc1Nc1c2ccccc2nc2ccccc12.Cl [Cmpd 116, Amsacrine hydrochloride]	+++
S=C(NCc1ccc2c(c1)OCO2)N1CCN(c2ncnc3c2oc2ccccc23)CC1 [Cmpd 117, Amuvatinib (MP-470,HPK 56)]	++
C[C@@H](O[C@H]1OCCN(Cc2n[nH]c(=O)[nH]2)[C@H]1c1ccc(F)cc1)c1cc(C(F)(F)F)cc(C(F)(F)F)c1 [Cmpd 126, Aprepitant]	++++
O=C1CCc2ccc(OCCCCN3CCN(c4cccc(Cl)c4Cl)CC3)cc2N1 [Cmpd 129, Aripiprazole]	+++
COc1cccc2c1cc([N+](=O)[O-])c1c(C(=O)O)cc3c(c12)OCO3 [Cmpd 130, Aristolochic Acid A]	++
C[C@H]1[C@H](OC(=O)CCC(=O)O)O[C@@H]2O[C@@]3(C)CC[C@H]4[C@H](C)CC[C@@H]1[C@@]24OO3 [Cmpd 132, Artesunate]	+++
CC[C@@H]1/C=C(\C)C[C@H](C)C[C@H](OC)[C@H]2O[C@@](O)(C(=O)C(=O)N3CCCC[C@H]3C(=O)O[C@H](/C(C)=C/[C@@H]3CC[C@@H](O)[C@H](OC)C3)[C@H](C)[C@@H](O)CC1=O)[C@H](C)C[C@@H]2OC [Cmpd 133, Ascomycin(FK 520)]	+++
COc1ccc(CCN2CCC(Nc3nc4ccccc4n3Cc3ccc(F)cc3)CC2)cc1 [Cmpd 136, Astemizole]	++++
COC(=O)N[C@H](C(=O)N[C@@H](Cc1ccccc1)[C@@H](O)CN(Cc1ccc(-c2ccccn2)cc1)NC(=O)[C@@H](NC(=O)OC)C(C)(C)C)C(C)(C)C [Cmpd 138, Atazanavir]	++
CC(C)c1c(C(=O)Nc2ccccc2)c(-c2ccccc2)c(-c2ccc(F)cc2)n1CC[C@@H](O)C[C@@H](O)CC(=O)[O-].CC(C)c1c(C(=O)Nc2ccccc2)c(-c2ccccc2)c(-c2ccc(F)cc2)n1CC[C@@H](O)C[C@@H](O)CC(=O)[O-].[Ca+2] [Cmpd 140, Atorvastatin Calcium]	++++
COc1ccc(CC2c3cc(OC)c(OC)cc3CC[N+]2(C)CCC(=O)OCCCCCOC(=O)CC[N+]2(C)CCc3cc(OC)c(OC)cc3C2Cc2ccc(OC)c(OC)c2)cc1OC (stereo not drawn) [Cmpd 142, Atracurium Besylate]	+++
CCOc1nc2cccc(C(=O)OCc3oc(=O)oc3C)c2n1Cc1ccc(-c2ccccc2-c2noc(=O)[nH]2)cc1 [Cmpd 149, Azilsartan Medoxomil]	++
Cc1ccc(NC(=O)c2ccc(CN3CC[C@H](N(C)C)C3)c(C(F)(F)F)c2)cc1Nc1nccc(-c2cncnc2)n1 [Cmpd 152, Bafetinib (INNO-406)]	+++
CNC1CCCN(c2c(F)cc3c(=O)c(C(=O)O)cn(C4CC4)c3c2OC)C1 (stereo not drawn) [Cmpd 154, Balofloxacin Dihydrate]	++
COC(=O)[C@]12CCC(C)(C)C[C@H]1[C@H]1C(=O)C=C3[C@@]4(C)C=C(C#N)C(=O)C(C)(C)[C@@H]4CC[C@@]3(C)[C@]1(C)CC2 [Cmpd 156, Bardoxolone methyl]	+++++
CC(C)(C)c1ccc(S(=O)(=O)/C=C/C#N)cc1 [Cmpd 157, Bay 11-7085]	+++++
Cc1ccc(S(=O)(=O)/C=C/C#N)cc1 [Cmpd 158, Bay 11-7821(BAY 11-7082)]	+++++
Cc1c(-c2ccc(O)cc2)n(Cc2ccc(OCCN3CCCCCC3)cc2)c2ccc(O)cc12 [Cmpd 159, Bazedoxifene acetate]	++++
COC(=O)C1=C(C)NC(C)=C(C(=O)OC2CCCN(Cc3ccccc3)C2)C1c1cccc([N+](=O)[O-])c1 (stereo not drawn) [Cmpd 161, Benidipine HCl]	++

SMILES	Compound Myofibroblast Cytotoxicity Activity
NC(CO)C(=O)NNCc1ccc(O)c(O)c1O (stereo not drawn) [Cmpd 162, Benserazide HCl]	++
Cl.N=C(N)c1ccccc1 [Cmpd 163, Benzamidine HCl]	+++
CCc1oc2ccccc2c1C(=O)c1cc(Br)c(O)c(Br)c1 [Cmpd 164, Benzbromarone]	++++
CCOC(=O)c1ccc(N)cc1 [Cmpd 166, Benzocaine]	++
O=C(O)c1ccccc1 [Cmpd 167, Benzoic Acid]	++
O=C(c1ccccc1)c1ccccc1 [Cmpd 168, Benzophenone]	++
COc1ccc2cc3[n+](cc2c1OC)CCc1cc2c(cc1-3)OCO2.[Cl-] [Cmpd 172, Berberine hydrochloride]	++
COc1ccc2cc3[n+](cc2c1OC)CCc1cc2c(cc1-3)OCO2 [Cmpd 173, Berberine Sulfate]	++
CNCCc1ccccn1.CS(=O)(=O)O.CS(=O)(=O)O [Cmpd 175, Betahistine mesylate]	++
CCCCC(=O)O[C@]1(C(=O)CO)[C@@H](C)C[C@H]2[C@@H]3CCC4=CC(=O)C=C[C@]4(C)[C@@]3(F)[C@@H](O)C[C@@]21C [Cmpd 176, Betamethasone Valerate]	++
O=C(O)CCNC(=O)c1ccccc1 [Cmpd 177, Betamipron]	+++++
C=C(c1ccc(C(=O)O)cc1)c1cc2c(cc1C)C(C)(C)CCC2(C)C [Cmpd 178, Bexarotene]	++++
c1ccc(-c2ccc(C(c3ccccc3)n3ccnc3)cc2)cc1 (stereo not drawn) [Cmpd 182, Bifonazole]	+++
Cc1ccc(-n2nc(C(C)(C)C)cc2NC(=O)Nc2ccc(OCCN3CCOCC3)c3ccccc23)cc1 [Cmpd 183, BIRB 796 (Doramapimod)]	++
CC[C@H](NC(=O)[C@H](C)NC)C(=O)N1C[C@@H](O)C[C@H]1Cc1c(-c2[nH]c3cc(F)ccc3c2C[C@@H]2C[C@H](O)CN2C(=O)[C@H](CC)NC(=O)[C@H](C)NC)[nH]c2cc(F)ccc12 [Cmpd 184, Birinapant (TL32711)]	++
CC(C)(c1ccc(O)cc1)c1ccc(O)cc1 [Cmpd 186, Bisphenol A]	++
CCN1CCN(c2cc(-c3ccc(F)cc3)c3c(n2)CCCCCC3)CC1 [Cmpd 187, Blonanserin]	+++
O=c1ccc2ccc(OCCCCN3CCN(c4cccc5sccc45)CC3)cc2[nH]1 [Cmpd 191, Brexpiprazole]	+++
Oc1c(Br)cc(Br)c2cccnc12 [Cmpd 194, Broxyquinoline]	+++
O=C(O)CCC(=O)O [Cmpd 196, Butane diacid]	++

SMILES	Compound Myofibroblast Cytotoxicity Activity
CN(Cc1ccc(C(C)(C)C)cc1)Cc1cccc2ccccc12 [Cmpd 197, Butenafine HCl]	+++
Clc1ccc(CCC(Cn2ccnc2)Sc2c(Cl)cccc2Cl)cc1 (stereo not drawn) [Cmpd 198, Butoconazole nitrate]	+++
COc1cc2nccc(Oc3ccc(NC(=O)C4(C(=O)Nc5ccc(F)cc5)CC4)cc3)c2cc1OC.O=C(O)C[C@H](O)C(=O)O [Cmpd 199, Cabozantinib malate (XL184)]	++
O=C(O)/C=C/c1ccc(O)c(O)c1 [Cmpd 200, Caffeic acid]	+
O=C(/C=C/c1ccc(O)c(O)c1)OCCc1ccccc1 [Cmpd 201]	++
C=C1CC[C@H](O)C/C1=C/C=C1\CCC[C@]2(C)[C@@H]([C@H](C)CCCC(C)(C)O)CC[C@@H]12 [Cmpd 202, Calcifediol]	+++
C=C1/C(=C\C=C2/CCC[C@]3(C)[C@@H]([C@H](C)/C=C/[C@@H](O)C4CC4)CC[C@@H]23)C[C@@H](O)C[C@@H]1O [Cmpd 203, Calcipotriol]	+++
C=C1/C(=C\C=C2/CCC[C@]3(C)[C@@H]([C@H](C)CCCC(C)(C)O)CC[C@@H]23)C[C@@H](O)C[C@@H]1O [Cmpd 204, Calcitriol]	+++
O=S(=O)([O-])c1cc(O)ccc1O.O=S(=O)([O-])c1cc(O)ccc1O.[Ca+2] [Cmpd 205, Calcium dobesilate]	++
C=C(C)[C@@H]1CC[C@@]2(C)[C@H]1[C@H]1CCC3[C@@]4(C)CC[C@H](O)C(C)(C)[C@@H]4CC[C@@]3(C)[C@]1(C)C[C@@H]2O (stereo partly drawn) [Cmpd 207, Calenduladiol]	+
Cc1ccc([C@@H]2O[C@H](CO)[C@@H](O)[C@H](O)[C@H]2O)cc1Cc1ccc(-c2ccc(F)cc2)s1.O [Cmpd 209, Canagliflozin (hemihydrate)]	+++++
CCOc1nc2cccc(C(=O)O)c2n1Cc1ccc(-c2ccccc2-c2nnn[nH]2)cc1 [Cmpd 210, Candesartan]	++
CCOc1nc2cccc(C(=O)OC(C)OC(=O)OC3CCCCC3)c2n1Cc1ccc(-c2ccccc2-c2nnn[nH]2)cc1 (stereo not drawn) [Cmpd 211, Candesartan Cilexetil]	+++
CCCCCCCCCC(=O)O [Cmpd 212, Caprate (10:0)]	++
C[N+](C)(C)CCOC(N)=O.[Cl-] [Cmpd 214, Carbamoylcholine chloride]	++
O=NN(CCCl)C(=O)NCCCl [Cmpd 218, Carmustine]	++
CC(C)(C)NCC(O)COc1cccc2c1CCC(=O)N2 (stereo not drawn) [Cmpd 219, Carteolol HCl]	++
Cc1ccc(C(C)C)cc1O [Cmpd 220, Carvacrol]	++
COc1ccccc1OCCNCC(O)COc1cccc2[nH]c3ccccc3c12 (stereo not drawn) [Cmpd 221, Carvedilol]	+++
C=C1CC[C@H]2O[C@]2(C)CC[C@@H]2[C@@H]1CC2(C)C [Cmpd 222, Caryophyllene Oxide]	++
